PMC9457746, “Synthesis of Sulfonamides Incorporating Piperidinyl-Hydrazidoureido and Piperidinyl-Hydrazidothioureido Moieties and Their Carbonic Anhydrase I, II, IX and XII Inhibitory Activity” (Molecules, 2022)
Like-named read-outs stand apart in the source and are kept apart here.

Experiments:
[1] = molecular target: hCA I (Homo sapiens, UniProt P00915); experiment: stopped flow CO2 hydrase assay, hCA I inhibition
Protocol: (§1) An Applied Photophysics stopped-flow instrument has been used for assaying the CA catalyzed CO2 hydration activity using the Khalifah procedure [23]. The used indicator was phenol red (0.2 mM), the absorbance maximum was of 557 nm, and the buffer was 20 mM Hepes (pH 7.5), whereas 20 mM Na2SO4 were employed for maintaining the ionic strength constant. […] Uncatalyzed rates were subtracted from the observed total rates. […] Inhibitor and enzyme solutions were preincubated together for 15 min, for assuring the formation of the E–I complex. The inhibition constants were obtained by non-linear least squares using the Cheng–Prusoff equation, as reported earlier [24, 25, 26] and represent the mean from at least three different determinations.

[2] = molecular target: hCA II (Homo sapiens, UniProt P00918); experiment: stopped flow CO2 hydrase assay, hCA II inhibition
Protocol: as §1

[3] = molecular target: hCA XII (Homo sapiens, UniProt O43570); experiment: stopped flow CO2 hydrase assay, hCA XII inhibition
Sequence of hCA XII (O43570 25-354): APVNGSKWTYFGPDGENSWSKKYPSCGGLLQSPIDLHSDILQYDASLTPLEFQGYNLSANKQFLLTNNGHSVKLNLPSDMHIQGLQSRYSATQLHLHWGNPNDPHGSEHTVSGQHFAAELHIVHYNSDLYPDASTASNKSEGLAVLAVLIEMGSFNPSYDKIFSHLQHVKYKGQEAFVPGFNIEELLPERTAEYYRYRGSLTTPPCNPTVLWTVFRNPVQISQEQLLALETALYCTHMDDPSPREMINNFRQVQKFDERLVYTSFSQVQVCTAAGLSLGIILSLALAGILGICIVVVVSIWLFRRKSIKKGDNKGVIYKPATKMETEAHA
Protocol: as §1

[4] = molecular target: hCA IX (Homo sapiens, UniProt Q16790); experiment: stopped flow CO2 hydrase assay, hCA IX inhibition
Protocol: as §1

[5] = read-out: Ki (nM) hCAI, Table 2, thioureas 6a-y, recombinant enzyme, 15 min preincubation, mean of at least three determinations
[6] = read-out: Ki (nM) hCAII, Table 2, thioureas 6a-y, recombinant enzyme, 15 min preincubation, mean of at least three determinations
[7] = read-out: Ki (nM) hCAXII, Table 2, thioureas 6a-y, recombinant enzyme, 15 min preincubation, mean of at least three determinations
[8] = read-out: Ki (nM) hCAIX, Table 2, thioureas 6a-y, recombinant enzyme, 15 min preincubation, mean of at least three determinations

Sequence of hCA I (P00915 whole entry): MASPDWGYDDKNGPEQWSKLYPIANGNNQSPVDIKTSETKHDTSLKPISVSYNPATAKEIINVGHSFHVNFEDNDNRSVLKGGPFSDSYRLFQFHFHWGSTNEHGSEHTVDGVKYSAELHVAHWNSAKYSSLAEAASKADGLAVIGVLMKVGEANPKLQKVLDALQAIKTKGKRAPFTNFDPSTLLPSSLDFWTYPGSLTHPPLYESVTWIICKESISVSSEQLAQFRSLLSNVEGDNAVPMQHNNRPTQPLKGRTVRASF

Compound | Ki [1] [nM] | Ki [2] [nM] | Ki [3] [nM] | Ki [4] [nM] | melting point [°C] | further results
2-(1-(3-sulfamoylbenzoyl)piperidine-4-carbonyl)-N-(p-tolyl)hydrazine-1-carbothioamide [Compound 6s] |  |  |  |  |  | Ki [1, 5]: 56.5 nM; Ki [2, 6]: 4.3 nM; increase in hCA II activity as compared to the 2-methyl analog ([2]; versus 6r): about 8 fold; Ki [3, 7]: 2.6 nM; increase in hCA XII activity as compared to the 2-methyl analog ([3]; versus 6r): about 8 fold; Ki [4, 8]: 9.3 nM
2-(1-(3-sulfamoylbenzoyl)piperidine-4-carbonyl)-N-(p-tolyl)hydrazine-1-carbothioamide [Compound 6t] |  |  |  |  |  | Ki [1, 5]: 613 nM; Ki [2, 6]: 58 nM; Ki [3, 7]: 31 nM; Ki [4, 8]: 28.4 nM
4-(4-(4-(4-(Trifluoromethyl)phenyl)piperazine-1-carbonyl)piperidine-1-carbonyl)benzenesulfonamide [Compound 6c] |  |  |  |  |  | Ki [3, 7]: 4.5 nM; Ki [4, 8]: 7.2 nM
NS(=O)(=O)c1ccc(C(=O)N2CCC(C(=O)NNC(=O)Nc3ccccc3)CC2)cc1 [Compound 5a] | 93.3 | 29.3 | 22.8 | 16.5 |  | 
NS(=O)(=O)c1ccc(C(=O)N2CCC(C(=O)NNC(=O)Nc3ccccc3Cl)CC2)cc1 [Compound 5b, N-(2-Chlorophenyl)-2-(1-(4-sulfamoylbenzoyl)piperidine-4-carbonyl)hydrazinecarboxamide] | 164 | 15.3 | 13.6 | 25.1 | 214 to 215 | 
NS(=O)(=O)c1ccc(C(=O)N2CCC(C(=O)NNC(=O)Nc3cccc(Cl)c3)CC2)cc1 [Compound 5c] | 218 | 5.1 | 44.6 | 37.8 |  | 
NS(=O)(=O)c1ccc(C(=O)N2CCC(C(=O)NNC(=O)Nc3ccc(Cl)cc3)CC2)cc1 [Compound 5d, N-(4-Chlorophenyl)-2-(1-(4-sulfamoylbenzoyl)piperidine-4-carbonyl)hydrazinecarboxamide] | 447 | 109 | 101 | 93.7 | 209 to 210 | 
NS(=O)(=O)c1ccc(C(=O)N2CCC(C(=O)NNC(=O)Nc3c(Cl)cccc3Cl)CC2)cc1 [Compound 5e] | 259 | 68.8 | 16.4 | 28.9 |  | 
NS(=O)(=O)c1ccc(C(=O)N2CCC(C(=O)NNC(=O)Nc3ccccc3F)CC2)cc1 [Compound 5f, N-(2-fluorophenyl)-2-(1-(4-sulfamoylbenzoyl)piperidine-4-carbonyl)hydrazinecarboxamide] | 562 | 24.6 | 8.4 | 22.5 | 229 to 230 | 
NS(=O)(=O)c1ccc(C(=O)N2CCC(C(=O)NNC(=O)Nc3cccc(F)c3)CC2)cc1 [Compound 5g, N-(3-fluorophenyl)-2-(1-(4-sulfamoylbenzoyl)piperidine-4-carbonyl)hydrazinecarboxamide] | 277 | 17.7 | 19.4 | 89.7 | 214 to 215 | 
NS(=O)(=O)c1ccc(C(=O)N2CCC(C(=O)NNC(=O)Nc3ccc(F)cc3)CC2)cc1 [Compound 5h] | 60.6 | 12.1 | 24 | 2.1 |  | 
NS(=O)(=O)c1ccc(C(=O)N2CCC(C(=O)NNC(=O)Nc3c(F)cccc3F)CC2)cc1 [Compound 5i, N-(2,6-difluorophenyl)-2-(1-(4-sulfamoylbenzoyl)piperidine-4-carbonyl)hydrazinecarboxamide] | 184 | 8.6 | 12.7 | 10.1 | 194 to 195 | 
Cc1ccccc1NC(=O)NNC(=O)C1CCN(C(=O)c2ccc(S(N)(=O)=O)cc2)CC1 [Compound 5j, 2-(1-(4-Sulfamoylbenzoyl)piperidine-4-carbonyl)-N-(o-tolyl)hydrazinecarboxamide] | 67.6 | 25.4 | 60.4 | 34.5 | 238 to 240 | 
Cc1cccc(NC(=O)NNC(=O)C2CCN(C(=O)c3ccc(S(N)(=O)=O)cc3)CC2)c1 [Compound 5k, 2-(1-(4-Sulfamoylbenzoyl)piperidine-4-carbonyl)-N-(m-tolyl)hydrazinecarboxamide] | 94.5 | 114 | 15.6 | 8.2 | 222 to 225 | 
Cc1ccc(NC(=O)NNC(=O)C2CCN(C(=O)c3ccc(S(N)(=O)=O)cc3)CC2)cc1 [Compound 5l] | 81.7 | 22 | 36.7 | 8.1 |  | 
Cc1cccc(C)c1NC(=O)NNC(=O)C1CCN(C(=O)c2ccc(S(N)(=O)=O)cc2)CC1 [Compound 5m, N-(2,6-Dimethylphenyl)-2-(1-(4-sulfamoylbenzoyl)piperidine-4-carbonyl)hydrazinecarboxanide] | 364 | 62.1 | 51.2 | 25.1 | 212 to 213 | 
Cc1cc(C)cc(NC(=O)NNC(=O)C2CCN(C(=O)c3ccc(S(N)(=O)=O)cc3)CC2)c1 [Compound 5n, N-(3,5-Dimethylphenyl)-2-(1-(4-sulfamoylbenzoyl)piperidine-4-carbonyl)hydrazinecarboxamide] | 165 | 47.8 | 44.7 | 34.4 | 216 to 217 | 
COc1ccccc1NC(=O)NNC(=O)C1CCN(C(=O)c2ccc(S(N)(=O)=O)cc2)CC1 [Compound 5o] | 451 | 185 | 19.6 | 8.6 | 219 to 220 | 
COc1cccc(NC(=O)NNC(=O)C2CCN(C(=O)c3ccc(S(N)(=O)=O)cc3)CC2)c1 [Compound 5p, (3-Methoxyphenyl)-2-(1-(4-sulfamoylbenzoyl)piperidine-4-carbonyl)hydrazinecarboxamide] | 281 | 45.6 | 17 | 24 | 218 to 220 | increase of activity on hCA II on shifting the methoxy group into 3-position ([2]; versus methoxy analogs 5o/5q): about 2 fold
COc1ccc(NC(=O)NNC(=O)C2CCN(C(=O)c3ccc(S(N)(=O)=O)cc3)CC2)cc1 [Compound 5q] | 487 | 99.7 | 9.1 | 8.9 | 228 to 230 | 
COc1ccc(NC(=O)NNC(=O)C2CCN(C(=O)c3ccc(S(N)(=O)=O)cc3)CC2)c(OC)c1 [Compound 5r] | 322 | 19.8 | 15.6 | 23.2 |  | 
NS(=O)(=O)c1ccc(C(=O)N2CCC(C(=O)NNC(=O)NCc3ccccc3)CC2)cc1 [Compound 5t] | 77.8 | 48.2 | 20.1 | 40 |  | 
COc1ccc(CNC(=O)NNC(=O)C2CCN(C(=O)c3ccc(S(N)(=O)=O)cc3)CC2)cc1 [Compound 5u] | 130 | 40.7 | 6.4 | 45.3 |  | selectivity for hCAXII compared with hCAII and hCAIX ([3]; hCA XII versus hCA II and hCA IX): about 6 fold
NS(=O)(=O)c1ccc(C(=O)N2CCC(C(=O)NNC(=S)Nc3ccccc3)CC2)cc1 [Compound 6a, N-phenyl-2-(1-(4-sulfamoylbenzoyl)piperidine-4-carbonyl)hydrazine-1-carbothioamide] | 30.1 | 26.5 | 3.2 | 28.8 | 210 to 211 | selectivity of hCA XII inhibition on hCA I and hCA II ([3]; hCA XII versus hCA I and hCA II): about 8 fold
NS(=O)(=O)c1ccc(C(=O)N2CCC(C(=O)NNC(=S)Nc3ccc([N+](=O)[O-])cc3)CC2)cc1 [Compound 6b, N-(4-Nitrophenyl)-2-(1-(4-sulfamoylbenzoyl)piperidine-4-carbonyl)hydrazinecarbothioamide] | 298 | 60.4 | 45 | 13.6 | 236 to 237 | selectivity on hCA IX compared to hCA I ([4]; hCA IX versus hCA I): about 22 fold; selectivity on hCA IX compared to hCA II ([4]; hCA IX versus hCA II): about 4 fold; selectivity on hCA IX compared to hCA XII ([4]; hCA IX versus hCA XII): ~3 fold
NS(=O)(=O)c1ccc(C(=O)N2CCC(C(=O)NNC(=S)Nc3ccccc3Cl)CC2)cc1 [Compound 6d, N-(2-Chlorophenyl)-2-(1-(4-sulfamoylbenzoyl)piperidine-4-carbonyl)hydrazinecarbothioamide] | 173 | 20.6 | 27.1 | 8.2 | 209 to 210 | 
NS(=O)(=O)c1ccc(C(=O)N2CCC(C(=O)NNC(=S)Nc3cccc(Cl)c3)CC2)cc1 [Compound 6e, N-(3-Chlorophenyl)-2-(1-(4-sulfamoylbenzoyl)piperidine-4-carbonyl)hydrazinecarbothioamide] | 323 | 16.6 | 9.7 | 18 | 226 to 227 | 
NS(=O)(=O)c1ccc(C(=O)N2CCC(C(=O)NNC(=S)Nc3cccc(F)c3)CC2)cc1 [Compound 6o, N-(3-Fluorophenyl)-2-(1-(4-sulfamoylbenzoyl)piperidine-4-carbonyl)hydrazinecarbothioamide] | 590 | 102 |  |  |  | Ki [4, 8]: 5.6 nM
N-(1-Phenylethyl)-2-(1-(4-sulfamoylbenzoyl)piperidine-4-carbonyl)hydrazinecarbothioamide [Compound 6x] |  |  |  |  |  | Ki [1, 5]: 76.6 nM; Ki [2, 6]: 7.6 nM; Ki [3, 7]: 10.4 nM; Ki [4, 8]: 2.9 nM
